The supplement of paper PMC5579334

How the values were obtained:
HS-PSS [1] = assay: drug sensitivity score (DSS, CellTiter-Glo viability, 72 h) (DSS (dimensionless)); higher = more sensitive; extreme values may be limits of the assay
Outline: (§1)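 Viability was scored by CellTiter-Glo ATP luminescence, scaled from vehicle to positive-control wells, with duplicates averaged where present. The cells, MPNST lines and primary human Schwann cells at 750–1000 per well, sat 72 h at 37 °C, 5% CO2, in 384-well plates preprinted with each compound at five concentrations in 10-fold steps. Four-parameter logistic fits were run on the data. These fits give drug sensitivity score and relative IC50 censored at the top concentration, and percent inhibition is reported at the top concentration.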

HS-Sch-2 [2] = assay: as above
Outline: as §1

YST-1 [3] = assay: as above
Outline: as §1

HS-PSS [4] = assay: drug sensitivity score (DSS, CellTox-Green cytotoxicity, 72 h) (DSS (dimensionless)); higher = more cytotoxic; extreme values may be limits of the assay
Outline: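 MPNST cell lines and primary human Schwann cells were incubated 72 h at 37 °C in 384-well plates holding five 10-fold compound dilutions. CellTox-Green was added before seeding at a final 1:1000 dilution and reported fluorescence from DNA released by disrupted cells. Signals were scaled to vehicle and positive-control wells, and cultures failing plate quality control were dropped. Drug sensitivity score and relative IC50 come from four-parameter logistic fits, with IC50 censored at the top concentration.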

HS-PSS [5] = assay: % inhibition of CellTiter-Glo viability at highest tested concentration (72 h), relative to DMSO and benzethonium chloride controls; higher = more inhibition
Outline: as §1

HS-Sch-2 [6] = assay: as above
Outline: as §1

YST-1 [7] = assay: as above
Outline: as §1

SMILES | drug sensitivity score (HS-PSS [1]) | drug sensitivity score (HS-Sch-2 [2]) | drug sensitivity score (YST-1 [3]) | drug sensitivity score (HS-PSS [4]) | % inhibition (HS-PSS [5]) | % inhibition (HS-Sch-2 [6]) | % inhibition (YST-1 [7])
NC1(C(=O)N[C@@H](CCO)c2ccc(Cl)cc2)CCN(c2ncnc3[nH]ccc23)CC1 [AZD-5363] (max concentration tested 10000 nM) | 0.45 | 3.33 | 4.35 | 0 | 20.3% | 66.5% | 56.9%
COc1cccc2c1C(=O)c1c(O)c3c(c(O)c1C2=O)C[C@@](O)(/C(CO)=N/NC(=O)CCCCCN1C(=O)C=CC1=O)C[C@@H]3O[C@H]1C[C@H](N)[C@H](O)[C@H](C)O1 [Aldoxorubicin] (max concentration tested 1000 nM) | 9.01 | 11 | 14.4 | 2.15 | 97.2% | 101% | 101%
O=C(O)CC1CC(c2ccccc2)=NO1 (stereo not given) [VGX-1027] (max concentration tested 10000 nM) | 0 | 0.12 | 0 | 0 | 4.47% | 13.4% | 4%
Cc1cccc(CC(=O)N2CCc3c2ccc(-c2cn(C)c4ncnc(N)c24)c3F)n1 (max concentration tested 2500 nM) | 0.96 | 0.16 | 0.36 | 0 | 29.6% | 16.1% | 14.4%
Cc1cc([C@@H](C)Nc2ccccc2C(=O)O)c2nc(N3CCOCC3)cc(=O)n2c1 [AZD-6482] (max concentration tested 2500 nM) | 0 | 0 | 0.53 | 0 | 9.25% | 0.36% | 17.1%
Cc1c(CN2CCN(C(=O)[C@H](C)O)CC2)sc2c(N3CCOCC3)nc(-c3cnc(N)nc3)nc12 [Apitolisib] (max concentration tested 10000 nM) | 8.39 | 9.07 | 18.3 | 0 | 64.5% | 71.5% | 86.9%
O=C(Nc1nc2ccccc2n1CCN1CCOCC1)c1cccc([N+](=O)[O-])c1 [IRAK1/4 inhibitor] (max concentration tested 25000 nM) | 0 | 0 | 0 | 0 | 3.76% | -2.86% | 6.78%
CC(C)Nc1cc(-c2c[nH]c(C(=O)N[C@H](CO)c3cccc(Cl)c3)c2)c(Cl)cn1 [Ulixertinib] (max concentration tested 10000 nM) | 2.52 | 6.76 | 3.93 | 0 | 53% | 68.7% | 41.1%
CCS(=O)(=O)N1CCN(c2ccc(Nc3ncc(C(N)=O)c(NC4CC4)n3)cc2)CC1 [Cerdulatinib] (max concentration tested 10000 nM) | 3.47 | 4.87 | 0 | 0 | 40.3% | 58.9% | -4.68%
O=c1sn(-c2cccc3ccccc23)c(=O)n1Cc1ccccc1 [Tideglusib] (max concentration tested 3000 nM) | 0 | 0 | 0 | 0 | 6.62% | 2.01% | 3.93%
CCN(c1cc(-c2ccc(CN3CCOCC3)cc2)cc(C(=O)NCc2c(C)cc(C)[nH]c2=O)c1C)C1CCOCC1 [Tazemetostat] (max concentration tested 10000 nM) | 0.52 | 0.07 | 0 | 0 | 10.9% | 12.6% | 0.37%
O=C1NC(=O)/C(=C/c2ccc3nccc(-c4ccncc4)c3c2)S1 (max concentration tested 10000 nM) | 2.69 | 1.71 | 9.37 | 0 | 49.6% | 37.8% | 86.6%
C=CC(=O)N1CCC(Oc2cc3c(Nc4ccc(Cl)c(Cl)c4F)ncnc3cc2OC)CC1 [Poziotinib] (max concentration tested 1000 nM) | 0 | 0 | 0.25 | 0 | 6.52% | 3.19% | 12.9%
O=C(O)c1ccc(Nc2ncc3c(n2)-c2ccc(Cl)cc2C(c2c(F)cccc2F)=NC3)cc1 [MLN-8054] (max concentration tested 10000 nM) | 3.57 | 6.25 | 6.64 | 0 | 36.4% | 60.3% | 46.6%
CC1(C)CCC(CN2CCN(c3ccc(C(=O)NS(=O)(=O)c4ccc(NCC5CCOCC5)c([N+](=O)[O-])c4)c(Oc4cnc5[nH]ccc5c4)c3)CC2)=C(c2ccc(Cl)cc2)C1 [Venetoclax] (max concentration tested 1000 nM) | 0 | 0 | 0.21 | 0 | -9.6% | 0.97% | 16.4%
C=CC(=O)Nc1cccc(Nc2nc(Nc3ccc(OCCOC)cc3)ncc2F)c1 [Spebrutinib] (max concentration tested 1000 nM) | 0.48 | 0.45 | 0.89 | 0 | 20.7% | 12.6% | 15.3%
Cc1nn(C)c(COc2ccc(N3CCN(S(=O)(=O)N(C)C)CC3)cc2)c1-c1cccc2c(CCCOc3cccc4ccccc34)c(C(=O)O)n(CCN3CCOCC3)c12 (max concentration tested 50000 nM) | 4.52 | 5.73 | 6.72 | 1.47 | 90.5% | 101% | 101%
CNC(=O)c1cc(COc2nnc(Nc3ccc(Cl)cc3)c3ccoc23)ccn1 [Telatinib] (max concentration tested 10000 nM) | 0 | 0 | 0.77 | 0 | 5.71% | 8.79% | 6.98%

SMILES | drug sensitivity score (HS-PSS [1]) | drug sensitivity score (HS-Sch-2 [2]) | drug sensitivity score (YST-1 [3]) | drug sensitivity score (HS-PSS [4]) | % inhibition (HS-PSS [5]) | % inhibition (HS-Sch-2 [6]) | % inhibition (YST-1 [7])
C[C@@H]1CN(Cc2ccc(F)cc2)[C@@H](C)CN1C(=O)c1cc2c(C(=O)C(=O)N(C)C)cn(C)c2cc1Cl [Talmapimod] (max concentration tested 10000 nM) | 0.11 | 0 | 6.19 | 0 | 13.9% | -10% | 37.4%
COc1ccc(-c2ccc3ncc4c(c3c2)n(-c2ccc(N3CCNCC3)c(C(F)(F)F)c2)c(=O)n4C)cn1 [NVP-BGT226] (max concentration tested 1000 nM) | 15.3 | 21.4 | 19.7 | 3.94 | 99.1% | 98.2% | 99.5%
COCC(=O)NC/C=C/c1ccc2ncnc(Nc3ccc(Oc4ccc(C)nc4)c(C)c3)c2c1 (max concentration tested 10000 nM) | 5.3 | 3.05 | 0.62 | 0 | 56.7% | 32.2% | 19.9%
Cc1sc2c(c1C)C(c1ccc(Cl)cc1)=N[C@@H](CC(=O)OC(C)(C)C)c1nnc(C)n1-2 [JQ1] (max concentration tested 10000 nM) | 10 | 13.1 | 13.1 | 0 | 59.1% | 76.3% | 72.6%
C1=N/C2=N/c3ccc(OCCN4CCCC4)c(c3)COC/C=C/COCc3cccc(c3)C(=C1)N2 [Pacritinib] (max concentration tested 10000 nM) | 10.8 | 8.63 | 8.15 | 4.15 | 99.4% | 99.6% | 100%
COc1cc2ncnc(Oc3cccc(NC(=O)Nc4cc(C(C)(C)C(F)(F)F)on4)c3)c2cc1OC (max concentration tested 10000 nM) | 0 | 0 | 0.17 | 0 | 3.34% | -3.7% | 3.62%
CC(C)[C@H](C(=O)Nc1ccc(C(=O)NO)cc1)c1ccccc1 [AR-42] (max concentration tested 10000 nM) | 10 | 10.9 | 17.8 | 5 | 88.1% | 101% | 100%
CCN(CC)CCCC(C)Nc1ccnc2cc(Cl)ccc12 (stereo not given) [Chloroquine] (max concentration tested 100000 nM) | 18.7 | 17.1 | 9.66 | 9.74 | 102% | 102% | 102%
O=C(O)CSc1cc(NS(=O)(=O)c2ccc(Br)cc2)c2ccccc2c1O [UMI-77] (max concentration tested 100000 nM) | 6.44 | 14.4 | 18.2 | 4.6 | 101% | 101% | 102%
Nc1ncnc2c1c(-c1cccc(OCc3ccccc3)c1)cn2[C@H]1C[C@@H](CN2CCC2)C1 [NVP-AEW541] (max concentration tested 10000 nM) | 5.83 | 8.08 | 13 | 7.08 | 100% | 99.8% | 98.3%
O=C(NOCC1CC1)c1ccc(F)c(F)c1Nc1ccc(I)cc1Cl (max concentration tested 10000 nM) | 0.51 | 5.05 | 1.6 | 0 | 21.5% | 55.9% | 24.6%
COc1c(OCCCN2CCOCC2)ccc2c1N=C(NC(=O)c1cnc(N)nc1)N1CCN=C21 [Copanlisib] (max concentration tested 1000 nM) | 1.69 | 7.87 | 17.5 | 0 | 44% | 70.5% | 92.5%
N#Cc1ccc2[nH]c(O)c(-c3ccc(CN4CCOCC4)cn3)c2c1 [AZD-1080] (max concentration tested 10000 nM) | 2.89 | 3.74 | 0 | 0 | 43.5% | 77.1% | 4.49%
Cc1nc(-c2cn3c(n2)-c2ccc(-c4cnn(C(C)(C)C(N)=O)c4)cc2OCC3)n(C(C)C)n1 [Taselisib] (max concentration tested 1000 nM) | 0.7 | 0.87 | 11.9 | 0 | 26.4% | 18.1% | 66.6%
O=C(Nc1cccc(Cl)c1)Nc1ncc(CCNc2ncnc3ccsc23)s1 [SNS-314] (max concentration tested 1000 nM) | 2.01 | 4.4 | 8.57 | 0 | 23.8% | 53.3% | 36.5%
COCC1(CO)C(=O)C2CCN1CC2 (stereo not given) [APR-246] (max concentration tested 10000 nM) | 0.39 | 0 | 0 | 0 | 13.1% | 5% | -11%
C/C=C1\NC(=O)[C@H]2CSSCC/C=C/[C@H](CC(=O)N[C@H](C(C)C)C(=O)N2)OC(=O)[C@H](C(C)C)NC1=O [Romidepsin] (max concentration tested 1000 nM) | 5.59 | 33 | 37.8 | 3.93 | 95.4% | 100% | 98.5%
